Where two headings read alike, the source gives them in different places.
Assays:
Type in all cases: in vivo
Wistar male rats = test: Flexor reflex in spinalized rats; conditions: intravenous; for response vs control in vivo at 0.1 mg/kg / response vs control in vivo at 0.3 mg/kg: Rattus norvegicus; for response vs control in vivo at 0.1 mg/kg / response vs control in vivo at 0.3 mg/kg / Reflex amplitude (%) 10 min. after / Reflex amplitude (%) 60 min. after: pre-dose mean = 100%; for Area below the reflex amplitude linking line: covering 60 minutes
Method: Wistar male rats (weighing 450-520 g) were anesthetized with ether, and the cervical part of […] was exposed, into which a tracheal cannula was inserted. The vagus nerves were severed bilaterally at the cervical region. Thereafter, the cervical vertebra C1 segment was transected, and rapidly, artificial ventilation was given with the use of an artificial respirator (Shinano Factory 60 rpm. 4 ml/stroke). The rat was placed on a thermostated apparatus in which water thermostated at 37° C. was circulated and fixed thereto at forelimbs, right hindlimb, tooth and tail. A venous cannula was inserted into the femoral vein in the right hindlimb and two needle electrodes were subcutaneously inserted into the left skin of the toe, and a piece of thread was attached to the limb with the edge of the thread bonded to a force-displacement transducer. Tension of about 5 g was applied to the thread. Through the electrodes, electric stimuli of 50-100 V were applied once per 30 seconds. The flexor reflex was recorded on the polygraph via a force-displacement transducer. After the reaction became constant in about one-hours' lapse for stabilization, the test compound dissolved in saline was intravenously administered. Thereafter, the reaction was recorded for 1 hour. In the data, taking the mean of the three reactions just before administration of the test compound for 100%, the reflex amplitude at 1-, 3-, 5-, 8-, 10-, 15-, 20-, 30-, 40-, 50- and 60-minutes' lapse after administration of the test compound were calculated. In Table 3, there are shown calculated area below the straight line linking the obtained reflex amplitude at the respective above-mentioned time covering 60 […], and the reflex amplitude at 10- and 60-minutes' lapse after administration (Table 3).

ICR male mice [1] = test: Anti-reserpine action (antagonistic action against hypothermia); conditions: SC, mice given reserpine 5 mg/kg s.c. 3 or 3.5 hours before, from regression line; for ED (1 degC rise in body temperature): Mus musculus, 2 h, read-out: Concentration of test compound necessary for raising body temperature by 1° C. on the average for 120 minutes
Method: ICR male mice weighing 35-40 g were subcutaneously administered with reserpine at the dose of 5 mg/kg. About 2 hours later, each of the mice was held by a mouse-holder, and a body temperature sensor was intrarectally inserted. Thereafter, the body temperature was automatically measured every 10 minutes. The test compound dissolved in saline was subcutaneously administered 3 or 3.5 hours after administration of reserpine. After the administration of the test compound, the body temperature was measured every 10 minutes over the period of 120 minutes. The area below the body temperature line during the period was calculated, from which the regression line was estimated based upon least square method, and estimated was the amount of the test compound necessary for raising the body temperature by 1° C. on the average for 120 minutes from that just before the administration of the test compound (Table 1).

ICR male mice [2] = test: Anti-chlorpromazine action (locomotor stimulant action); conditions: SC, mice given chlorpromazine.HCl 5 mg/kg s.c. one hour before, from regression line; for ED (3000 locomotor counts): Mus musculus, 2 h, read-out: Concentration of test compound necessary for inducing 3000 count of automatism quantity in 2 hours
Method: ICR male mice weighing 35-40 g (four animals per group) were subcutaneously administered with chlorpromazine.HCl at the dose of 5 mg/kg and immediately set in the automatic locomotor-measuring apparatus (AUTOMEX). One hour later, the test compound dissolved in saline was subcutaneously administered, and the locomotor activity was measured every 15 minutes for 120 minutes. The total locomotor activity during the period of 120 minutes was calculated and the regression line was estimated based on the method of least squares, from which the amount of the test compound necessary for inducing 3000 locomotor-count was estimated (Table 2).

[3] = 10 min, 0.1 mg/kg, read-out: Reflex amplitude (%) 10 min. after
[4] = 1 h, 0.1 mg/kg, read-out: Reflex amplitude (%) 60 min. after
[5] = 1 h, 0.3 mg/kg (footnote *), read-out: Reflex amplitude (%) 60 min. after
[6] = 10 min, 0.3 mg/kg (footnote *), read-out: Reflex amplitude (%) 10 min. after

CSCC[C@H](NC(=O)[C@H]1NC(=O)C[C@H]1C)C(=O)N1CCC[C@H]1C(N)=O [Compound 28A, N-(cis-3-Methylpyroglutamyl)-L-methionyl-L-prolinamide]
response vs control in vivo at 0.1 mg/kg (Wistar male rats; [3]): 125%
response vs control in vivo at 0.1 mg/kg (Wistar male rats; [4]): 195%
Area below the reflex amplitude linking line (Wistar male rats; 0.1 mg/kg): 9188

NC(=O)[C@@H]1CCCN1C(=O)[C@H](Cc1c[nH]cn1)NC(=O)C1CCC(=O)C1 (stereo partly drawn) [Compound 13, N^α -(3-Oxocyclopentanecarbonyl)-L-histidyl-L-prolinamide]
response vs control in vivo at 0.1 mg/kg (Wistar male rats; [4]): 167%

CCCC[C@H](NC(=O)[C@H]1NC(=O)C[C@H]1C)C(=O)N1CCC[C@H]1C(N)=O [Compound 31A, N-(cis-3-Methylpyroglutamyl)-L-norleucyl-L-prolinamide]
response vs control in vivo at 0.1 mg/kg (Wistar male rats; [3]): 130%
response vs control in vivo at 0.1 mg/kg (Wistar male rats; [4]): 129%
Area below the reflex amplitude linking line (Wistar male rats; 0.1 mg/kg): 8126

NC(=O)[C@@H]1CCCN1C(=O)[C@H](Cc1c[nH]cn1)NC(=O)[C@@H]1CCC(=O)C1 [Compound 16, N^α -[(1R)-3-Oxocyclopentanecarbonyl]-L-histidyl-L-prolinamide]
response vs control in vivo at 0.1 mg/kg (Wistar male rats; [4]): 252%

C[C@H]1CC(=O)C[C@H]1C(=O)N[C@@H](Cc1c[nH]cn1)C(=O)N1CCC[C@H]1C(N)=O (mixture of isomers) [Compound 19, N^α -(cis-2-Methyl-4-oxocyclopentanecarbonyl)-L-histidyl-L-prolinamide]
response vs control in vivo at 0.1 mg/kg (Wistar male rats; [4]): 246%
response vs control in vivo at 0.3 mg/kg (Wistar male rats; [5]): 340%

C[C@H]1CC(=O)N[C@@H]1C(=O)N[C@@H](Cc1c[nH]cn1)C(=O)N1CCC[C@H]1C(N)=O [Compound 2, N^α -(trans-3-Methylpyroglutamyl)-L-histidyl-L-prolinamide]
response vs control in vivo at 0.1 mg/kg (Wistar male rats; [4]): 107%

C[C@@H]1CC(=O)N[C@@H]1C(=O)N[C@@H](Cc1cnc[nH]1)C(=O)N1CSC[C@H]1C(N)=O (relative stereo) [Compound 3, 3-[N^α -(cis-3-Methylpyroglutamyl)-L-histidyl]-L-thiazolidine-4-carboxamide]
Concentration of test compound necessary for raising body temperature by 1° C. on the average for 120 minutes (ICR male mice [1]): 0.20 mg/kg
Concentration of test compound necessary for inducing 3000 count of automatism quantity in 2 hours (ICR male mice [2]): 0.47 mg/kg
Area below the reflex amplitude linking line (Wistar male rats; 0.1 mg/kg): 13811
Reflex amplitude (%) 10 min. after (Wistar male rats; 0.1 mg/kg): 190.5%
Reflex amplitude (%) 60 min. after (Wistar male rats; 0.1 mg/kg): 277.6%

CC1(C)CC(=O)CC1C(=O)N[C@@H](Cc1c[nH]cn1)C(=O)N1CCC[C@H]1C(N)=O (stereo partly drawn) [Compound 21, N^α -(2,2-Dimethyl-4-oxocyclopentanecarbonyl)-L-histidyl-L-prolinamide]
response vs control in vivo at 0.1 mg/kg (Wistar male rats; [4]): 145%
response vs control in vivo at 0.3 mg/kg (Wistar male rats; [5]): 274%

CCC[C@H](NC(=O)[C@H]1NC(=O)CC1(C)C)C(=O)N1CCC[C@H]1C(N)=O [Compound 33A, N-(3,3-Dimethylpyroglutamyl)-L-norvalyl-L-prolinamide]
response vs control in vivo at 0.3 mg/kg (Wistar male rats; [6]): 119%
response vs control in vivo at 0.3 mg/kg (Wistar male rats; [5]): 120%
Area below the reflex amplitude linking line (Wistar male rats; 0.3 mg/kg (footnote *)): 7172

NC(=O)C1CCCN1C(=O)C(Cc1cnc[nH]1)NC(=O)C1CCC(=O)O1 (stereo not shown) [DN1417, reference compound]
Concentration of test compound necessary for raising body temperature by 1° C. on the average for 120 minutes (ICR male mice [1]): 2.06 mg/kg
Concentration of test compound necessary for inducing 3000 count of automatism quantity in 2 hours (ICR male mice [2]): 4.34 mg/kg
Area below the reflex amplitude linking line (Wistar male rats; 0.3 mg/kg (footnote *)): 8152
Reflex amplitude (%) 10 min. after (Wistar male rats; 0.3 mg/kg (footnote *)): 113.7%
Reflex amplitude (%) 60 min. after (Wistar male rats; 0.3 mg/kg (footnote *)): 162.8%

C[C@H]1CC(=O)N[C@@H]1C(=O)N[C@@H](Cc1c[nH]cn1)C(=O)N1CSC[C@H]1C(N)=O (relative stereo) [Compound 4, 3-[N^α -(trans-3-Methylpyroglutamyl)-L-histidyl]-L-thiazolidine-4-carboxamide]
Concentration of test compound necessary for raising body temperature by 1° C. on the average for 120 minutes (ICR male mice [1]): 0.34 mg/kg
Concentration of test compound necessary for inducing 3000 count of automatism quantity in 2 hours (ICR male mice [2]): 0.63 mg/kg
Area below the reflex amplitude linking line (Wistar male rats; 0.1 mg/kg): 9404
Reflex amplitude (%) 10 min. after (Wistar male rats; 0.1 mg/kg): 142.8%
Reflex amplitude (%) 60 min. after (Wistar male rats; 0.1 mg/kg): 163.9%

NC(=O)[C@@H]1CCCN1C(=O)[C@H](Cc1ccccc1)NC(=O)[C@@H]1CCC(=O)C1 [Compound 37, N-[(1R)-3-oxocyclopentanecarbonyl]-L-phenylalanyl-L-prolinamide]
Area below the reflex amplitude linking line (Wistar male rats; 0.3 mg/kg (footnote *)): 5868

C[C@@H]1CC(=O)O[C@@H]1C(=O)N[C@@H](Cc1c[nH]cn1)C(=O)N1CCC[C@H]1C(N)=O [Compound 5, N^α -[(2S,3R)-Tetrahydro-3-methyl-5-oxo-2-furancarbonyl]-L-histidyl-L-prolinamide]
response vs control in vivo at 0.1 mg/kg (Wistar male rats; [4]): 168%

C[C@@H]1CC(=O)C[C@H]1C(=O)N[C@@H](Cc1c[nH]cn1)C(=O)N1CCC[C@H]1C(N)=O (mixture of isomers) [Compound 20, N^α -(trans-2-Methyl-4-oxocyclopentanecarbonyl)-L-histidyl-L-prolinamide]
response vs control in vivo at 0.1 mg/kg (Wistar male rats; [4]): 107%
response vs control in vivo at 0.3 mg/kg (Wistar male rats; [5]): 223%

C[C@@H]1CC(=O)N[C@@H]1C(=O)N[C@@H](Cc1c[nH]cn1)C(=O)N1CCC[C@H]1C(N)=O [Compound 1, N^α -(cis-3-Methylpyroglutamyl)-L-histidyl-L-prolinamide]
response vs control in vivo at 0.1 mg/kg (Wistar male rats; [4]): 298%

CC(C)C[C@H](NC(=O)[C@H]1NC(=O)C[C@H]1C)C(=O)N1CCC[C@H]1C(N)=O [Compound 27A, N-(cis-3-Methylpyroglutamyl)-L-leucyl-L-prolinamide]
response vs control in vivo at 0.1 mg/kg (Wistar male rats; [3]): 126%
response vs control in vivo at 0.1 mg/kg (Wistar male rats; [4]): 156%
Area below the reflex amplitude linking line (Wistar male rats; 0.1 mg/kg): 8769

NC(=O)[C@@H]1CCCN1C(=O)[C@H](Cc1c[nH]cn1)NC(=O)[C@@H]1CCC(=O)N1 [TRH, L-pyroglutamyl-L-histidyl-L-prolinamide, reference compound]
ED (1 degC rise in body temperature) (ICR male mice [1]): 2.52 mg/kg
ED (3000 locomotor counts) (ICR male mice [2]): 6.82 mg/kg
response vs control in vivo at 0.1 mg/kg (Wistar male rats; [3]): 118%
response vs control in vivo at 0.1 mg/kg (Wistar male rats; [4]): 79.3%
Area below the reflex amplitude linking line (Wistar male rats; 0.1 mg/kg): 6418

CCC[C@H](NC(=O)[C@H]1NC(=O)C[C@H]1C)C(=O)N1CCC[C@H]1C(N)=O [Compound 29A, N-(cis-3-Methylpyroglutamyl)-L-norvalyl-L-prolinamide]
response vs control in vivo at 0.3 mg/kg (Wistar male rats; [6]): 124%
response vs control in vivo at 0.3 mg/kg (Wistar male rats; [5]): 121%
Area below the reflex amplitude linking line (Wistar male rats; 0.3 mg/kg (footnote *)): 7063

NC(=O)[C@@H]1CCCN1C(=O)[C@H](Cc1c[nH]cn1)NC(=O)[C@H]1NC(=O)C[C@H]1c1ccccc1 [Compound 11, N^α -(cis-3-Phenylpyroglutamyl)-L-histidyl-L-prolinamide]
ED (1 degC rise in body temperature) (ICR male mice [1]): 0.28 mg/kg
ED (3000 locomotor counts) (ICR male mice [2]): 1.89 mg/kg
response vs control in vivo at 0.1 mg/kg (Wistar male rats; [3]): 140%
response vs control in vivo at 0.1 mg/kg (Wistar male rats; [4]): 241%
Area below the reflex amplitude linking line (Wistar male rats; 0.1 mg/kg): 11321

— patent US5151497A, “Histidyl peptide derivatives” (Japan Tobacco Inc., priority 1990, dated 1992)
